Tested on: Plasmodium falciparum
Assay: Antimalarial activity against chloroquine-resistant, mefloquine-sensitive Plasmodium falciparum W2
Format: functional

Compound | Log RA
CCCC[C@H]1C(=O)O[C@@H]2O[C@@]3(CCCc4ccc(Cl)cc4)CC[C@H]4[C@H](C)CC[C@@H]1[C@@]24OO3 | -0.28
C[C@@H]1CCC2[C@@H](C)C(=O)OC3OC(C)(C)OO[C@@]32C1 (stereo partly drawn) | -0.15
O=S(=O)(c1ccccc1)N1C[C@]2(c3ccccc3)CC[C@@](c3ccccc3)(C1)OO2 | -2.26
C[C@@H]1CCC2[C@@H](C)C(=O)OC3OC(C)(C)OO[C@@]32[C@H]1C (stereo partly drawn) | -0.86
CCOC(=O)[C@H](O[C@H]1O[C@@H]2O[C@@]3(C)CC[C@H]4[C@H](C)CC[C@@H]([C@H]1C)[C@@]24OO3)c1ccccc1 | 0.87
CCOC(=O)[C@@H](O[C@H]1O[C@@H]2O[C@@]3(C)CC[C@H]4[C@H](C)CC[C@@H]([C@H]1C)[C@@]24OO3)c1ccccc1 | 1.25
CCC[C@H](Cc1ccccc1)OC1O[C@@H]2O[C@@]3(C)CC[C@H]4[C@H](C)CC[C@@H]([C@H]1C)[C@@]24OO3 (stereo partly drawn) | -0.09
CC[C@H]1C(=O)O[C@@H]2O[C@@]3(C)CC[C@H]4[C@H](C)CC[C@@H]1[C@@]24OO3 | 1.4
C=CC[C@H]1C(=O)O[C@@H]2O[C@@]3(C)CC[C@H]4[C@H](C)CC[C@@H]1[C@@]24OO3 | -0.1
CCCC[C@H]1C(=O)O[C@@H]2O[C@@]3(C)CC[C@H]4[C@H](C)CC[C@@H]1[C@@]24OO3 | 0.17
C[C@@H]1CC[C@H]2[C@@H](CCCCc3ccccc3)C(=O)O[C@@H]3O[C@@]4(C)CC[C@@H]1[C@]32OO4 | 0.63
CCCCC[C@H]1CO[C@@H]2O[C@@]3(C)CC[C@H]4[C@H](C)CC[C@@H]1[C@@]24OO3 | 0.16
CCOC(=O)CC[C@@]12CC[C@H]3[C@H](C)CC[C@H]4CCO[C@H](O1)[C@]43OO2 | 0.7
CCC[C@@]12CC[C@H]3[C@H](C)CC[C@H]4CCO[C@H](O1)[C@]43OO2 | 0.84
CCCC[C@@]12CC[C@H]3[C@H](C)CC[C@H]4CCO[C@H](O1)[C@]43OO2 | 0.75
CC(C)C[C@@]12CC[C@H]3[C@H](C)CC[C@H]4CCO[C@H](O1)[C@]43OO2 | 0.4
CO[C@H]1O[C@]2(C)OO[C@]13[C@H](CCOCc1ccccc1)CCC[C@@H]3CC2(C)C | -1.8
CC1C(=O)O[C@@H]2C[C@@]3(C)CC[C@H]4[C@H](C)CC[C@@H]1[C@@]24OO3 (stereo partly drawn) | -0.96
C[C@@H]1CC[C@H]2[C@@H](C)CO[C@@H]3O[C@@]4(C)CC[C@@H]1[C@]32OO4 | 0.75
CC1=CO[C@@H]2O[C@@]3(C)CC[C@H]4[C@H](C)CC[C@@H]1[C@@]24OO3 | 0.78
CCC[C@@]12CC[C@H]3[C@H](C)CC[C@H]4CC(=O)O[C@H](O1)[C@]43OO2 | 0.83

Compound | Log RA
COc1ccc([C@@]23CCC[C@](c4ccc(OC)cc4)(CC2)OO3)cc1 | -0.67
CCCC[C@H]1C(=O)O[C@@H]2O[C@@]3(CCCC)CC[C@H]4[C@H](C)CC[C@@H]1[C@@]24OO3 | -0.48
c1ccc([C@]23CC[C@@](c4ccccc4)(COC2)OO3)cc1 | -2.26
C=C/N=N/[C@H]1C(=O)O[C@@H]2O[C@]3(C)CC[C@H]4[C@H](C)CC[C@@H]1[C@@]24OO3 | -2.7
CCOC(=O)COC1O[C@@H]2O[C@@]3(C)CC[C@H]4[C@H](C)CC[C@@H]([C@H]1C)[C@@]24OO3 (stereo partly drawn) | 0.52
C[C@@]12CC[C@H]3CCC[C@H]4CC(=O)O[C@H](O1)[C@@]34OO2 | -0.36
CCO[C@H]1O[C@@H]2O[C@@]3(C)CC[C@H]4C(C)[C@@H](O)C[C@@H]([C@H]1C)[C@@]24OO3 (stereo partly drawn) | 0.34
CC(C)C[C@@]12CC[C@H]3[C@H](C)CC[C@H]4CCO[C@H](O1)[C@]43O2 | -4
C[C@@H]1CC[C@H]2[C@@H](C)C(=O)N[C@@H]3O[C@@]4(C)CC[C@@H]1[C@]32OO4 | 0
C[C@@H]1CC[C@H]2CC(=O)N(C)[C@@H]3O[C@@]4(C)CC[C@@H]1[C@@]23OO4 | 0.7
COC(=O)CCCOC1O[C@@H]2O[C@@]3(C)CC[C@H]4[C@H](C)CC[C@@H]([C@H]1C)[C@@]24OO3 (stereo partly drawn) | -0.03
CCC[C@H]1C(OCC)O[C@@H]2O[C@@]3(C)CC[C@H]4[C@H](C)CC[C@@H]1[C@@]24OO3 (stereo partly drawn) | -0.04
C[C@@H]1CC[C@H]2C3(CC3)C(=O)O[C@@H]3O[C@@]4(C)CC[C@@H]1[C@]32OO4 | -0.94
CCCCC[C@H]1C(=O)O[C@@H]2O[C@@]3(C)CC[C@H]4[C@H](C)CC[C@@H]1[C@@]24OO3 | 1.02
CC(C)[C@H]1C(=O)O[C@@H]2O[C@@]3(C)CC[C@H]4[C@H](C)CC[C@]1(C)[C@@]24OO3 | -0.04
C[C@@H]1CC[C@@H]2[C@]34OO[C@](C)(CC[C@@H]13)O[C@H]4OC(Nc1nccs1)[C@@]2(C)Br (stereo partly drawn) | 0.66
CC1CCO[C@@H]2O[C@@]3(C)CC[C@H]4[C@H](C)CC[C@@H]1[C@@]24OO3 (stereo partly drawn) | -1.2
C/C=C/C[C@@H]1C(=O)O[C@@H]2O[C@@]3(C)CC[C@H]4[C@H](C)CC[C@@H]1[C@@]24OO3 | -0.6
C[C@@H]1CC[C@@H]2[C@]34OO[C@](C)(CC[C@@H]13)O[C@H]4OC(O)[C@]21CO1 (stereo partly drawn) | -0.57
CCOC(=O)CC[C@@]12CC[C@H]3[C@H](C)CC[C@H]4CCO[C@H](O1)[C@]43O2 | -4
CC(C)CC[C@H]1C(=O)O[C@@H]2O[C@@]3(C)CC[C@H]4[C@H](C)CC[C@@H]1[C@@]24OO3 | 0.07

Compound | Log RA
COC(=O)c1ccc(COC2O[C@@H]3O[C@@]4(C)CC[C@H]5[C@H](C)CC[C@@H]([C@H]2C)[C@@]35OO4)cc1 (stereo partly drawn) | -0.07
C[C@@H]1CC[C@H]2[C@@H](CCCc3ccccc3)C(=O)O[C@@H]3O[C@@]4(C)CC[C@@H]1[C@]32OO4 | 0.78
C[C@@H]1CC[C@H]2[C@@H](C)C(=O)N(Cc3ccccn3)[C@@H]3O[C@@]4(C)CC[C@@H]1[C@@]23O4 | -4
CO[C@@H]1O[C@@]2(C)CC[C@H]3CC(C)(C)CC[C@]31OO2 | -0.47
CC(C)CN1C(=O)[C@H](C)[C@@H]2CC[C@@H](C)[C@@H]3CC[C@]4(C)O[C@@H]1[C@@]32O4 | -4
CCCCCC[C@H]1C(=O)O[C@@H]2O[C@@]3(C)CC[C@H]4[C@H](C)CC[C@@H]1[C@@]24O3 | -4
C=CCOCC[C@@H]1CCC[C@@H]2CC[C@@]3(C)OO[C@]21[C@@H](OC)O3 | 0.4
COCC[C@@H]1CCC[C@@H]2CC[C@@]3(C)OO[C@]21[C@@H](OC)O3 | -0.39
C[C@@H]1CC[C@H]2[C@@H](C)C(OCC3C4CC5CC(C4)CC3C5)O[C@@H]3O[C@@]4(C)CC[C@@H]1[C@]32OO4 (stereo partly drawn) | 0.28
COC(=O)C[C@@H](C)OC1O[C@@H]2O[C@@]3(C)CC[C@H]4[C@H](C)CC[C@@H]([C@H]1C)[C@@]24OO3 (stereo partly drawn) | 1.7
C[C@@]12C[C@H]3CCC[C@H]4CC(=O)O[C@H](O1)[C@@]34OO2 | -1.79
CCO[C@H]1O[C@@H]2O[C@@]3(C)CC(O)[C@H]4C(C)CC[C@@H]([C@H]1C)[C@@]24OO3 (stereo partly drawn) | -1.08
CCCN1C(=O)C[C@@H]2CC[C@@H](C)[C@@H]3CC[C@@]4(C)OO[C@@]23[C@H]1O4 | 0.05
C[C@H]1[C@@H](O[C@H](C)c2ccc(C(=O)O)cc2)O[C@@H]2O[C@@]3(C)CC[C@H]4[C@H](C)CC[C@@H]1[C@@]24OO3 | 0.12
C[C@H]1[C@@H](O[C@@H](C)c2ccc(C(=O)O)cc2)O[C@@H]2O[C@@]3(C)CC[C@H]4[C@H](C)CC[C@@H]1[C@@]24OO3 | 0.21
CC(=O)Oc1ccc([C@@H](C)O[C@H]2O[C@@H]3O[C@@]4(C)CC[C@H]5[C@H](C)CC[C@@H]([C@H]2C)[C@@]35OO4)cc1 | 0.68
CC(C)CN1C(=O)C[C@@H]2CC[C@@H](C)[C@@H]3CC[C@@]4(C)OO[C@@]23[C@H]1O4 | 0.02
COC1O[C@@H]2O[C@@]3(C)CC[C@H]4[C@H](C)CC[C@@H]([C@H]1C)[C@@]24OO3 (stereo partly drawn) | 0.28
C[C@@H]1CC[C@H]2CC(=O)N(Cc3ccccc3)[C@@H]3O[C@@]4(C)CC[C@@H]1[C@@]23OO4 | 0.34
C[C@@H]1CC[C@@H]2[C@]34OO[C@](C)(CC[C@@H]13)O[C@H]4OC(=O)[C@]21CO1 | -4
C[C@@H]1CC[C@H]2CC(=O)O[C@@H]3O[C@@]4(CCCc5ccc(Cl)cc5)CC[C@@H]1[C@@]23OO4 | 0.1
